Test results published in patent US5480882A, “Benzoxazinone and benzothiazinone derivatives having cardiovascular activity” (Italfarmaco S.p.A., priority 1992, dated 1996).
Where a name gives a salt, the structure may show the parent alone.

Experiments:
[1] = system: Arg-vasopressin induced coronary spasm, anaesthetized Sprague Dawley rats; experiment: In vivo antianginal activity, Arg-vasopressin-induced coronary spasm (T-wave increase) in anaesthetized rats; conditions: Rattus norvegicus, iv, 4 increasing doses; 50% inhibition of T-wave increase induced by i.v. Arg-vasopressin in anaesthetized rats
Experimental: The in vivo antianginal activity was determined on anaesthetized Sprague Dawley rats of weight 350-400 g, in accordance with the method of M. Leitold et al., Arzeim. Forsch., 36, 1454 1986. The test was carried out by intravenously administering to the animals one I.U./Kg, equivalent to […] of Arg-vasopressin, thus inducing a reproducible coronary spasm that may be electrocardiographically monitored by an increase of the T-wave. The animals were treated intravenously with 4 increasing doses of the compounds of the present invention to measure their ED50 (i.e., the dose giving 50% inhibition of the T-wave increase).

[2] = system: rabbit aorta strip contracted with noradrenaline; experiment: Vasodilative activity in vitro, inhibition of noradrenaline-induced contraction of rabbit aorta strip; type: cell-based; conditions: Oryctolagus cuniculus; 50% inhibition of noradrenaline contraction of rabbit aorta strip
Experimental: The vasodilative activity of the compounds of the present invention were determined by testing of a rabbit aorta strip contracted with noradrenaline. Using the method described by K. Murakami et al. Eur. J. Pharmacol., 141, 195, 1987., IC50 values (i.e. the micromolar (μM) concentrations of active substances causing a 50% inhibition of the contraction of the aorta strip), were determined.

Structure (SMILES) | IC50 [2] [nM] | ED50 [1] [mg/kg]
O=C1c2cc([N+](=O)[O-])ccc2OCN1CCO[N+](=O)[O-] [Example 1, 2,3-Dihydro-3-(2'-nitrooxyethyl)-6-nitro,4H-1,3-benzoxazin-4-one] | 21 | 0.0637
O=C1c2ccc(O)cc2OCN1CCO[N+](=O)[O-] [Example 6, 2,3-Dihydro-7-hydroxy-3-(2'-nitrooxyethyl)-4H-1,3-benzoxazin-4-one] | 57 | –
O=C1c2cc(O)ccc2OCN1CCO[N+](=O)[O-] [Example 5, 2,3-Dihydro-6-hydroxy-3-(2'-nitrooxyethyl)-4H-1,3-benzoxazin-4-one] | 96 | –
N#Cc1ccc2c(c1)C(=O)N(CCO[N+](=O)[O-])CO2 [Example 4, 6-Ciano-2,3-dihydro-3-(2'-nitrooxyethyl)-4H-1.3-benzoxazin-4-one] | 71 | 0.0115

Continued, in another order:

IC50 [2] [nM] | Structure (SMILES) | ED50 [1] [mg/kg]
640 | CN(C)C=Nc1ccc2c(c1)C(=O)N(CCO[N+](=O)[O-])CO2 [Example 3, 2,3-Dihydro-6-(N',N',-dimethyl-N-formimido)-3-(2'-nitro-oxyethyl)-4H-1,3-benzoxazin-4-one-HCl] | 0.0097
270 | CC(=O)Nc1ccc2c(c1)C(=O)N(CCO[N+](=O)[O-])CO2 [Example 2, 6-Acetamido-2,3-dihydro-3-(2'-nitrooxyethyl)-4H-1,3-benzoxazin-4-one] | 0.021
